Test results as given in ChEMBL document CHEMBL1154730, “Novel quinolines and pyrimido[4,5-b]quinolines bearing biologically active sulfonamide moiety as a new class of antitumor agents” (Eur J Med Chem, 2010).
Values after ≈ are worked out from the molar mass of the structure shown.

Legend:
[1] = Cytotoxicity against mouse EAC cells assessed as non-viable cells at 100 ug/ml after 2 hrs by trypan blue exclusion; assay type: functional, Ehrlich
[2] = Cytotoxicity against mouse EAC cells assessed as non-viable cells at 50 ug/ml after 2 hrs by trypan blue exclusion; assay type: functional, Ehrlich
[3] = Cytotoxicity against mouse EAC cells assessed as non-viable cells at 25 ug/ml after 2 hrs by trypan blue exclusion; assay type: functional, Ehrlich
[4] = Cytotoxicity against mouse EAC cells assessed as non-viable cells at 10 ug/ml after 2 hrs by trypan blue exclusion; assay type: functional, Ehrlich
[5] = Cytotoxicity against mouse EAC cells after 2 hrs by trypan blue exclusion; assay type: functional, cell-based; details: ehrlich

Row | SMILES | Activity [1] [%] | Activity [2] [%] | Activity [3] [%] | Activity [4] [%] | IC50 [5] [µg/mL]
1 | Nc1nc(=S)[nH]c2c1C(c1ccc(Cl)cc1Cl)C1=C(CCCC1=O)N2c1ccc(S(N)(=O)=O)cc1 (stereo not given) | 100 | 100 | 50 | 30 | 25 (≈ 45.6 µM)
2 | N#CC1=C(NC(=S)Nc2ccccc2)N(c2ccc(S(N)(=O)=O)cc2)C2=C(C(=O)CCC2)C1c1ccc(Cl)cc1Cl (stereo not given) | 95 | 55 | 50 | 40 | 25 (≈ 40 µM)
3 | N#CC1=C(NC(=S)Nc2ccc(Cl)cc2)N(c2ccc(S(N)(=O)=O)cc2)C2=C(C(=O)CCC2)C1c1ccc(Cl)cc1Cl (stereo not given) | 100 | 100 | 60 | 30 | 40 (≈ 60.7 µM)
4 | N=c1c2c([nH]c(=S)n1-c1ccccc1)N(c1ccc(S(N)(=O)=O)cc1)C1=C(C(=O)CCC1)C2c1ccc(Cl)cc1Cl (stereo not given) | 60 | 50 | 30 | 10 | 50 (≈ 80.1 µM)
5 | N=c1c2c([nH]c(=S)n1-c1ccc(Br)cc1)N(c1ccc(S(N)(=O)=O)cc1)C1=C(C(=O)CCC1)C2c1ccc(Cl)cc1Cl (stereo not given) | 70 | 50 | 30 | 30 | 50 (≈ 71.1 µM)
6 | NS(=O)(=O)c1ccc(N2C3=C(C(=O)CCC3)C(c3ccc(Cl)cc3Cl)c3c2[nH]c(=S)[nH]c3=S)cc1 (stereo not given) | 57 | 39 | 30 | 11 | > 100
7 | N#CC1=C(NC(=O)CCC(=O)O)N(c2ccc(S(N)(=O)=O)cc2)C2=C(C(=O)CCC2)C1c1ccc(Cl)cc1Cl (stereo not given) | 60 | 50 | 35 | 20 | 50 (≈ 84.8 µM)
8 | CCCCNC(=S)NC1=C(C#N)C(c2ccc(Cl)cc2Cl)C2=C(CCCC2=O)N1c1ccc(S(N)(=O)=O)cc1 (stereo not given) | 40 | 35 | 30 | 30 | > 100
9 | Nc1nc(=O)[nH]c2c1C(c1ccc(Cl)cc1Cl)C1=C(CCCC1=O)N2c1ccc(S(N)(=O)=O)cc1 (stereo not given) | 100 | 90 | 80 | 80 | 6.9 (≈ 13 µM)
10 | C=CCn1c(=S)[nH]c2c(c1=N)C(c1ccc(Cl)cc1Cl)C1=C(CCCC1=O)N2c1ccc(S(N)(=O)=O)cc1 (stereo not given) | 75 | 50 | 40 | 30 | 50 (≈ 85 µM)
11 | C=CCNC(=S)NC1=C(C#N)C(c2ccc(Cl)cc2Cl)C2=C(CCCC2=O)N1c1ccc(S(N)(=O)=O)cc1 (stereo not given) | 40 | 33 | 30 | 10 | > 100
12 | CCCCn1c(=S)[nH]c2c(c1=N)C(c1ccc(Cl)cc1Cl)C1=C(CCCC1=O)N2c1ccc(S(N)(=O)=O)cc1 (stereo not given) | 80 | 80 | 70 | 70 | 7 (≈ 11.6 µM)
13 | N#CC1=C(N)N(c2ccc(S(N)(=O)=O)cc2)C2=C(C(=O)CCC2)C1c1ccc(Cl)cc1Cl (stereo not given) | 95 | 65 | 50 | 40 | 25 (≈ 51.1 µM)
14 | N#CC1=C(N2C(=O)CCC2=O)N(c2ccc(S(N)(=O)=O)cc2)C2=C(C(=O)CCC2)C1c1ccc(Cl)cc1Cl (stereo not given) | 90 | 70 | 50 | 20 | 25 (≈ 43.7 µM)
15 | N#CC1=C(NC(N)=O)N(c2ccc(S(N)(=O)=O)cc2)C2=C(C(=O)CCC2)C1c1ccc(Cl)cc1Cl (stereo not given) | 60 | 40 | 35 | 20 | 75 (≈ 141 µM)
16 | N#CC1=C(NC(=S)Nc2ccc(Br)cc2)N(c2ccc(S(N)(=O)=O)cc2)C2=C(C(=O)CCC2)C1c1ccc(Cl)cc1Cl (stereo not given) | 90 | 90 | 50 | 50 | 25 (≈ 35.5 µM)
17 | N#CC1=C(NS(=O)(=O)c2ccc([N+](=O)[O-])cc2)N(c2ccc(S(N)(=O)=O)cc2)C2=C(C(=O)CCC2)C1c1ccc(Cl)cc1Cl (stereo not given) | 90 | 85 | 85 | 50 | 20 (≈ 29.6 µM)
18 | N#CC1=C(NS(=O)(=O)c2ccc(Br)cc2)N(c2ccc(S(N)(=O)=O)cc2)C2=C(C(=O)CCC2)C1c1ccc(Cl)cc1Cl (stereo not given) | 100 | 90 | 90 | 90 | 5.5 (≈ 7.76 µM)
19 | N=c1c2c([nH]c(=S)n1-c1ccc(Cl)cc1)N(c1ccc(S(N)(=O)=O)cc1)C1=C(C(=O)CCC1)C2c1ccc(Cl)cc1Cl (stereo not given) | 95 | 90 | 60 | 50 | 10 (≈ 15.2 µM)
20 | COc1cccc2c1C(=O)c1c(O)c3c(c(O)c1C2=O)C[C@@](O)(C(=O)CO)C[C@@H]3O[C@H]1C[C@H](N)[C@H](O)[C@H](C)O1 [DOXORUBICIN] | 100 | 68 | 32 | 19 | 38 (≈ 69.9 µM)
